Data from paper PMC10386454 (Pharmaceutics, 2023).

Experiments:
[1] = system: HEK293 empty vector transfected cells (mock); assay: Forskolin-stimulated cAMP production in mock-transfected HEK293 cells; format: cell-based, human; conditions: extracts […] (Ex18 0.005 mg/mL), melatonin 1 µM
[2] = system: HEK293 empty vector transfected cells (mock); assay: ERK1/2 activation assay in mock HEK293 cells; format: cell-based, human; conditions: MLT 1 µM
[3] = system: HEK293 empty vector transfected cells (mock); assay: β-arrestin2 recruitment assay (PathHunter), control cells with β-gal donor not fused to melatonin receptors; format: cell-based, human; conditions: extracts […], Ex18 0.005 mg/mL, MLT 1 µM
human MT1 [4] = molecular target: T1, human MT1 (Homo sapiens, UniProt P48039); assay: Inhibition of forskolin-stimulated cAMP production, HEK293 cells expressing MT1; format: cell-based; parameters: expressed in transfected cells; conditions: single concentration: extracts […] (Ex18 0.005 mg/mL), melatonin 1 µM; normalized to mock cell responses
Target sequence in this assay (P48039 whole entry): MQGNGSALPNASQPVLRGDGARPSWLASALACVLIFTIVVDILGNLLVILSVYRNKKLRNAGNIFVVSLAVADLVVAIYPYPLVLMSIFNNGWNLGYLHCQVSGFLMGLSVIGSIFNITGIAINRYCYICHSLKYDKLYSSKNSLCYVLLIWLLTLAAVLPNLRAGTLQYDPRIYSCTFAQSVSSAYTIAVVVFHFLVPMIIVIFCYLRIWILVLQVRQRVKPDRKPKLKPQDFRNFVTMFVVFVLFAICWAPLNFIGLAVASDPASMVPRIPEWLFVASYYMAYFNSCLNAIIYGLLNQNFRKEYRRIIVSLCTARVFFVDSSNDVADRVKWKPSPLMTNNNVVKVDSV

human MT1 [5] = molecular target: T1, human MT1; assay: β-arrestin2 recruitment assay (PathHunter), MT1; format: cell-based; parameters: host or cells: HEK 293 PathHunter parental cells, transient transfection of the receptor; conditions: single saturating concentration
Target sequence in this assay (P48039 whole entry): as above
Target sequence in this assay (P32121 whole entry partner): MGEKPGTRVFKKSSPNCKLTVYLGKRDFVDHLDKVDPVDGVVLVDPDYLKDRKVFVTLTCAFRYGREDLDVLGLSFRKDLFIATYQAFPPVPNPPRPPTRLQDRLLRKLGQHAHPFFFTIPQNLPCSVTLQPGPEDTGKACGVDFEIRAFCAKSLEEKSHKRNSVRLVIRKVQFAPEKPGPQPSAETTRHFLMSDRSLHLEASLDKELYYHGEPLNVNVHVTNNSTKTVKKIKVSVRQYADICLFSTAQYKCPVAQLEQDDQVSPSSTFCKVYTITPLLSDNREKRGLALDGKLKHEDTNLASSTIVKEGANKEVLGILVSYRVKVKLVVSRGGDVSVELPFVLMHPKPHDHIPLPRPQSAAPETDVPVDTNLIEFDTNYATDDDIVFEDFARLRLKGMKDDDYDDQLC

human MT2 receptor = molecular target: T2, human MT2 receptor (Homo sapiens, UniProt P49286); assay: 2-[125I]iodomelatonin competitive binding assay, MT2
T2 construct: expressed in transfected cells
T2 sequence (P49286 1-362): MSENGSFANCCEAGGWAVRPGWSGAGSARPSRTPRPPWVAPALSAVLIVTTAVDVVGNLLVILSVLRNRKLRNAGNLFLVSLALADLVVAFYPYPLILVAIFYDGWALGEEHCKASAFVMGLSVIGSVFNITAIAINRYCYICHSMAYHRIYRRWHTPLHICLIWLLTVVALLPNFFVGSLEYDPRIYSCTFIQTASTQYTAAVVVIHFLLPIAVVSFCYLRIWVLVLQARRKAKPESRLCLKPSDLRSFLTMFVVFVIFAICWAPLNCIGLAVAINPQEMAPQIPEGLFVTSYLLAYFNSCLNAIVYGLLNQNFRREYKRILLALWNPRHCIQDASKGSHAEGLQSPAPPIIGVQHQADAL

human MT1 [6] = molecular target: T1, human MT1; assay: 2-[125I]iodomelatonin competitive binding assay, MT1; parameters: expressed in transfected cells
Target sequence in this assay (P48039 whole entry): as the sequence (P48039 whole entry) above

| effect on FSK-stimulated cAMP production, cells expressing MT1 (human MT1 [4]) | β-arrestin2 recruitment, MT1-β-gal donor fusion protein (human MT1 [5]) | 2-[125I]-MLT binding to MT2, result in words (human MT2 receptor) | 2-[125I]-MLT binding to MT1, result in words (human MT1 [6]) | Compound | effect on forskolin (FSK)-stimulated cAMP levels in mock cells [1] | effect on ERK1/2 pathway in mock cells, in words [2] | β-arrestin2 recruitment in control cells (β-gal donor alone) [3] |
| --- | --- | --- | --- | --- | --- | --- | --- |
| decreased FSK-stimulated cAMP production | induced β-arrestin2 recruitment | – | – | COc1ccc2[nH]cc(CCNC(C)=O)c2c1 [Melatonin, N-acety-5-methoxyltryptamine] | did not show any effect | without effect | Neither melatonin nor any extract induced β-arrestin2 recruitment |
| – | – | no impact | no impact | maltodextrin | – | – | – |
